{"source": "patent US7098248B2", "about": "“Beta-adrenergic blockade reversal of catabolism after severe burn” (Research Development Foundation, priority 2001, dated 2006)", "key": {"[1]": {"tested_on": "severely burned (>40% total body surface area) children", "assay": "Energy expenditure by metabolic cart (indirect calorimetry)", "format": "in vivo, human", "experimental": "Between midnight and 5 AM on the day of study, oxygen consumption (VO2), carbon dioxide production (VCO2), respiratory quotient (RQ) and resting energy expenditure (REE) were determined with a metabolic cart (Sensormedics Model 2900; Yorba Linda, Calif.) at 30° C. ambient room temperature during continuous feeding."}, "[2]": {"tested_on": "severely burned (>40% total body surface area) children", "assay": "Fat-free mass by whole body potassium 40 counting", "format": "in vivo, human", "experimental": "(§1) Two weeks after treatment was started, a second series of metabolic and protein kinetic studies was performed. Subjects who received at least a four-week treatment course underwent a second whole-body potassium measurement. At discharge, subjects underwent body composition scanning by a dual image x-ray absorptiometry.\nDetermination of Fat-Free Mass using Potassium 40 Whole Body Counting. Fat-Free Mass was determined by Whole Body Potassium 40 (^40K) scintillation counting in a heavily shielded low background noise counting room, a 32 NaI detector array, and computed data analysis which has been validated for use in children.^20,21 The counting precision of the instrument used is <1.5%, which was calibrated daily using BOMAB Phantoms with simulated fat overlays. All studies were done after feedings and IV fluids were discontinued to minimize exogenous potassium contamination."}, "[3]": {"tested_on": "severely burned (>40% total body surface area) children", "assay": "Lean body mass by dual image x-ray absorptiometry (DEXA)", "format": "in vivo, human", "experimental": "as §1\nTotal body lean mass and fat mass were measured by dual image x-ray absorptometry. A Hologic model QDR-4500W DEXA (Hologic Inc, Waltham, Mass.) with the pediatric software package was used to measure body composition."}, "[4]": {"tested_on": "severely burned (>40% total body surface area) children", "assay": "Clinical safety: sepsis, held doses, complications during hospitalization", "format": "in vivo, human"}, "[5]": {"tested_on": "severely burned (>40% total body surface area) children", "assay": "Serum glucose, potassium and hormone values", "conditions": "result in words"}, "[6]": {"tested_on": "severely burned (>40% total body surface area) children", "assay": "Vital signs (hourly heart rate, blood pressure, temperature)"}, "[7]": {"tested_on": "severely burned (>40% total body surface area) children", "assay": "Stable isotope cross-leg skeletal muscle protein kinetic study"}, "[8]": {"conditions": "between metabolic studies, result in words"}, "[9]": {"conditions": "result in words, listed as propranolol"}, "[10]": {"conditions": "two weeks of oral propranolol, mean ± SEM"}, "[11]": {"conditions": "after treatment, n = 11, model derived, mean, listed as heads read shifted one entry"}}, "note": "“Also recorded” adds a separate entry of the source.", "data": [{"compound": "CC(C)NCC(O)COc1cccc2ccccc12", "note": "(stereo not drawn) [Propranolol, propranolol]", "values": [{"measurement": "Carbon dioxide production vs non-treated group", "setting": "[1]; [8]", "value": "significant decreases"}, {"measurement": "Oxygen consumption vs non-treated group", "setting": "[1]; [8]", "value": "significant decreases"}, {"measurement": "Respiratory quotient", "setting": "[1]; [8]", "value": "did not change"}, {"measurement": "Resting energy expenditure vs baseline / non-treated group", "setting": "[1]; [9]", "value": "lower than baseline and lower than those of the control group; also recorded: significant decreases"}, {"measurement": "Carbon dioxide production, change from baseline", "setting": "[1]; [10]", "value": "−64 ± 22"}, {"measurement": "Oxygen consumption, change from baseline", "setting": "[1]; [10]", "value": "−56 ± 22"}, {"measurement": "Respiratory quotient, change from baseline", "setting": "[1]; [10]", "value": "−0.1 ± 0.1"}, {"measurement": "Resting energy expenditure, change from baseline", "setting": "[1]; [10]", "value": "−422 ± 197"}, {"measurement": "Loss of fat free mass", "setting": "[2]; 4 weeks of treatment, twelve propranolol subjects, p=0.003 vs controls", "value": 1, "unit": "%"}, {"measurement": "Fat free mass by whole body potassium counter", "setting": "[2]; four weeks of treatment, result in words", "value": "did not change; also recorded: preserved"}, {"measurement": "Improvement of lean body mass percentage vs non-treated control group", "setting": "[3]; at discharge, p=0.01", "value": "~6", "unit": "%"}, {"measurement": "Lean body mass percentage", "setting": "[3]; at full healing and discharge, 9 treated subjects", "value": "79.1±1.2", "unit": "%"}, {"measurement": "Subjects who developed sepsis", "setting": "[4]; during hospitalization, p=1.0 vs controls", "value": "4 of 13"}, {"measurement": "Subjects in whom one or more doses were held temporarily for a mean arterial pressure between 60 and 65", "setting": "[4]; during treatment course", "value": "3 of 13"}, {"measurement": "Asthma", "setting": "[4]; result in words", "value": "No asthma occurred"}, {"measurement": "Evidence of tissue hypoperfusion (wound conversion to full thickness, metabolic acidosis)", "setting": "[4]; result in words", "value": "No other direct or indirect evidence of tissue hypoperfusion"}, {"measurement": "Negative clinical sequela resulting from β-blockade", "setting": "[4]; result in words", "value": "No negative clinical sequela"}, {"measurement": "Serum potassium values vs non-treated group", "setting": "[5]", "value": "higher"}, {"measurement": "Heart rates vs baseline and control group", "setting": "[6]; during beta blockade, p<0.05, result in words", "value": "lower than baseline and lower than those of the control group"}, {"measurement": "Decrease in heart rate compared with patient's own baseline and with non-treated controls", "setting": "[6]; oral propranolol titrated, p=0.03", "value": 20, "unit": "%"}, {"measurement": "Blood pressure vs non-treated group / with treatment", "setting": "[6]; [9]", "value": "not statistically different; also recorded: no significant decrease"}, {"measurement": "Diastolic blood pressure, change from baseline", "setting": "[6]; [10]", "value": "−5 ± 5", "unit": "mm/mHg"}, {"measurement": "Mean arterial pressure, change from baseline", "setting": "[6]; [10]", "value": "1 ± 8", "unit": "mHg"}, {"measurement": "Systolic blood pressure, change from baseline", "setting": "[6]; [10]", "value": "−4 ± 5", "unit": "mHg"}, {"measurement": "FSR, fractional synthetic rate, rate of incorporation of tracer into muscle over time", "setting": "[7]; after treatment, n = 11, mean", "value": 0.34, "unit": "%/hr"}, {"measurement": "FM,A, inward transport into myocyte", "setting": "[7]; [11]", "value": 0.264, "unit": "μmol Phe/min/100 ml leg"}, {"measurement": "FM,O, muscle protein breakdown", "setting": "[7]; [11]", "value": 0.287, "unit": "μmol Phe/min/100 ml leg"}, {"measurement": "FO,M, muscle protein synthesis", "setting": "[7]; [11]", "value": 0.337, "unit": "μmol Phe/min/100 ml leg"}, {"measurement": "FV,A, A→V shunt past muscle", "setting": "[7]; [11]", "value": 0.821, "unit": "μmol Phe/min/100 ml leg"}, {"measurement": "FV,M, outward transport from myocyte", "setting": "[7]; [11]", "value": 0.214, "unit": "μmol Phe/min/100 ml leg"}, {"measurement": "Fin, amino acid inflow into leg via femoral artery", "setting": "[7]; [11]", "value": 1.085, "unit": "μmol Phe/min/100 ml leg"}, {"measurement": "Fout, amino acid outflow from leg via femoral vein", "setting": "[7]; [11]", "value": 1.034, "unit": "μmol Phe/min/100 ml leg"}, {"measurement": "Rd, rate of disappearance, approximating protein synthesis", "setting": "[7]; [11]", "value": 0.157, "unit": "μmol Phe/min/100 ml leg"}, {"measurement": "Protein synthesis measured by direct incorporation of the tracer", "setting": "[7]; long-term β-blockade, result in words", "value": "increased"}, {"measurement": "Muscle protein net balance from baseline and vs non-treated controls", "setting": "[7]; result in words", "value": "improved"}, {"measurement": "Muscle protein net balance from baseline and vs non-treated controls", "setting": "[7]; [9]", "value": "achieved anabolic levels"}]}]}
